Experimental data: paper PMC6532426 (Nature chemistry, 2019)

Molecular target: active human CypA protein (Homo sapiens, UniProt P62937)
Experiment: Surface plasmon resonance
Format: binding
Conditions: assays of Fig. 5 (CypA SPR, IL-2)

Chain of active human CypA protein (P62937 whole entry): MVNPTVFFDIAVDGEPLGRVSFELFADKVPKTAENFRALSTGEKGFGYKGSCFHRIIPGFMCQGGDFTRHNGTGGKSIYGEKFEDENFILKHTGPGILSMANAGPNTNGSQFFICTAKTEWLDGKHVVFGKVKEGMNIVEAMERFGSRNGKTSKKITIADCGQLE

In the case of `CC(=O)O[C@@H]1OC[C@H]2CC(=O)CC[C@H]21` [(-)-24], the “immunosuppressive activity / CypA affinity in words” value is reported as “completely inactive”.

For `CC1(C)CCCC(C)(C2=C[C@@H]3COC(=O)[C@@H]3CC2)C1` (stereo partly drawn) [compound 28], the “immunosuppressive activity / CypA affinity in words” value was “completely inactive” and the “immunosuppressive activity / CypA affinity in words” value (listed as (–)-28) was “inactive”.
